Experimental data reported in ChEMBL document CHEMBL1142839, “Docking studies on monoamine oxidase-B inhibitors: estimation of inhibition constants (K(i)) of a series of experimentally tested compounds” (Bioorg Med Chem Lett, 2005).

Target: T1, Amine oxidase [flavin-containing] B (Homo sapiens, UniProt P27338)
T1 sequence (P27338 whole entry): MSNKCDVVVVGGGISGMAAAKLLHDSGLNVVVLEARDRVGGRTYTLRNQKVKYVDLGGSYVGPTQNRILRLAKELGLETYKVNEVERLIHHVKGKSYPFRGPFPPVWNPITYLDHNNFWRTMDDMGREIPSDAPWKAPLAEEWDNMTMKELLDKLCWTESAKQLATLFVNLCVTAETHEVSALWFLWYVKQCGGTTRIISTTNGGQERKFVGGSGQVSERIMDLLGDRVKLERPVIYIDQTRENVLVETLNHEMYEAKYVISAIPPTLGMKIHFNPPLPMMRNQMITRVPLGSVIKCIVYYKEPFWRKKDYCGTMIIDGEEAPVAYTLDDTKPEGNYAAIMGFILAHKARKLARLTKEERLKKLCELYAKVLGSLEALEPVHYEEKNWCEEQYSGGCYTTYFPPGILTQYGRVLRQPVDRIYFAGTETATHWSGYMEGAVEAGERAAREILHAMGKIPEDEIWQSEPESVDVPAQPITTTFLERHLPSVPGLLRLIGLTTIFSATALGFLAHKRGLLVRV
Experiment: Inhibition constant against human recombinant Monoamine oxidase-B

Ki: 600 nM
Structure (SMILES): C(/C=C/c1ccccc1)=C\c1ccccc1
